Where two headings read alike, the source gives them in different places.

The text below walks through data of patent US10941121B2 (AZIENDA OSPEDALIERA UNIVERSITARIA SENESE, priority 2015, dated 2021).

Data set [1] in a line: Cytotoxicity, MTT method in LUNET cells. The format is cell-based. The conditions noted are these: human; MMT method in LUNET cells; read-out: CC50 (μM) non-infected cells. As for the experimental part:
Toxicity (CC50) was analysed in the Lunet/HuH7 cells by the addition of 10 μL of MTT (3-(4,5-dimethylthiazol-2-yl)-2,5-diphenyltetrazolium bromide) per well. After 4 h of incubation at 37° C. in a humidified atmosphere with 5% CO2, the amount of formazan produced was quantified spectrophotometrically at 550/620 nm (C. Pannecouque et al, Nature protocol 2008; 3 (3): 427-434). […] These assays were done in duplicate.

Data set [2] deals with HIV-1 wild-type reference strain NL4-3. In words: HIV-1 phenotypic assay, MT-2 cells then TZM-bl cells, luciferase. Format: cell-based. To be noted: Human immunodeficiency virus 1, NL43; first cycle in MT-2 cells, additional round in TZM-bl cells.
Data set [3] concerns EBOV expressing GFP (EBOV/GFP). Format: cell-based, Ebola virus.
The target of data set [4] is T1, DDX3 Helicase (Homo sapiens, UniProt O00571). The data set can be described thus: biochemical.
T1 sequence (O00571 whole entry): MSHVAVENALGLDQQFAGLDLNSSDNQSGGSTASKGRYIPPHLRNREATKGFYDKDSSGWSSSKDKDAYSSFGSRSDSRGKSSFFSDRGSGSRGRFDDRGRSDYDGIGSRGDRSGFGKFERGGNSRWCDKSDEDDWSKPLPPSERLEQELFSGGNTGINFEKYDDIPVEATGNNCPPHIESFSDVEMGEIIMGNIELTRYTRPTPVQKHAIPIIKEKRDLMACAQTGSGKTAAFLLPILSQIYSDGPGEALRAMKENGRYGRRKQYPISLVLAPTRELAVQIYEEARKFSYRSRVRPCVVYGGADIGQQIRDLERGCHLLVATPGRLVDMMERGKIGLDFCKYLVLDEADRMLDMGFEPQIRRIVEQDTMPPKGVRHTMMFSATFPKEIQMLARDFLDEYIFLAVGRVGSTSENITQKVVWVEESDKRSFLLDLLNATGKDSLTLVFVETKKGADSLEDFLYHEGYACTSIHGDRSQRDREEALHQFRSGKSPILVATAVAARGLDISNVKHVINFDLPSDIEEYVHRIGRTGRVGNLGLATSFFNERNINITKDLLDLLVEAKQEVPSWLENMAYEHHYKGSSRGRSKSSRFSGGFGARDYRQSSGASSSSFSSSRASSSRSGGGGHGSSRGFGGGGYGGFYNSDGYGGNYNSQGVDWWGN
Data set [5] concerns Hepatitis C Virus (HCV) replicon system. In words: HCV replicon system, luciferase method in LucUbiNeo-ET cells. The conditions noted are these: for EC50: Hepatitis C virus, 48 h, read-out: EC50 (μM) HCV replicon system.
Data set [6] in a line: Cytotoxicity in PBMC, CellTiter 96 MTS viability assay. The format is cell-based. To be noted: human, human primary PBMCs.
Data set [7] is described as follows: Parallel Artificial Membrane Permeability Assay (PAMPA). Format: in vitro ADME. The conditions noted are these: for Papp at 5 h, 0.5 mM: PAMPA, phosphatidylcholine in dodecane, pH 7.4, 5 h, room temperature, read-out: PAMPA Papp *10^−6 (cm/s) GI; for PAMPA membrane retention (RM %): value in brackets in the PAMPA cell. As to the method: Parallel Artificial Membrane Permeability Assay (PAMPA). Donor solution (0.5 mM) was prepared by diluting 1 mM dimethylsulfoxide (DMSO) compound stock solution using phosphate buffer (pH 7.4, 0.025 M). Filters were coated with 5 μL of a 1% (w/v) dodecane solution of phosphatidylcholine prepared from CHCl3 solution 10% w/v, for intestinal permeability. Donor solution (150 μL) was added to each well of the filter plate. To each well of the acceptor plate were added […] (50% DMSO in phosphate buffer). All compounds were tested in three different plates on different days. The sandwich was incubated for 5 h at room temperature under gentle shaking. After the incubation time, the plates were separated, and samples were taken from both receiver and donor sides and analyzed using LC with UV detection at 280 nm.
LC analysis were performed with a Varian Prostar HPLC system (Varian Analytical Instruments, USA) equipped with a binary pump with a manual injection valve and model Prostar 325 UV-VIS Detector.
Permeability (Papp) for PAMPA was calculated according to the following equation, obtained from Wohnsland and Faller and Sugano et al. equation with some modification in order to obtain permeability values in cm s^−1,
where VA is the volume in the acceptor well, VD is the volume in the donor well (cm^3), A is the “effective area” of the membrane (cm^2), t is the incubation time (s) and r the ratio between drug concentration in the acceptor and equilibrium concentration of the drug in the total volume (VD+VA). Drug concentration is estimated by using the peak area integration.
Membrane retentions (%) were calculated according to the following equation: […]
where r is the ratio between drug concentration in the acceptor and equilibrium concentration, D, A, and Eq represented drug concentration in the donor, acceptor and equilibrium solution, respectively.

A short description of data set [8]: Water Solubility Assay. The conditions noted are these: thermodynamic from solid. The format is physicochemical. As to the method:
Water Solubility Assay. Each solid compound (1 mg) was added to 1 mL of water. The samples were shaked in a shaker bath at room temperature for 24-36 h. The suspensions were filtered through a 0.45 μm nylon filter (Acrodisc), and the solubilized compound determined by LC-MS-MS assay. For each compound the determination was performed in triplicate.
For the quantification was used an LC-MS system consisted of a Varian apparatus (Varian Inc) including a vacuum solvent degassing unit, two pumps (212-LC), a Triple Quadrupole MSD (Mod. 320-LC) mass spectrometer with ES interface and Varian MS Workstation System Control Vers. 6.9 software. […] The flow rate was 0.2 mL min^−1 and injection volume was 5 μL. The instrument operated in positive mode and parameters were: detector 1850 V, drying gas pressure 25.0 psi, desolvation temperature 300.0° C., nebulizing gas 40.0 psi, needle 5000 V and shield 600 V. Nitrogen was used as nebulizer gas and drying gas. Collision induced dissociation was performed using Argon as the collision gas at a pressure of 1.8 mTorr in the collision cell.

Data set [9] concerns human liver microsome (HLM). In words: Microsomal Stability Assay. To be noted: human liver microsomes, 37 °C, 60 min, compound 50 μM; percentage of not metabolized compound.
Data set [10] can be described thus: Cytotoxicity in the JEV cell culture system. The conditions noted are these: hamster.
The test system of data set [11] is HIV (PBMC). In words: HIV infectious cell culture system in PBMC, HIV-1 RNA in supernatant. To be noted: Human immunodeficiency virus 1, PBMC, 72 h, read-out: EC50 HIV (PBMC) 72 h.
In data set [12] the test system is JEV strain (NJ2008). The data set can be described thus: JEV infectious cell culture system, plaque formation assay in BHK-21 cells. To be noted: Japanese encephalitis virus, BHK-21, read-out: JEV EC50.
The nature of data set [13]: Cytotoxicity, MTT method in HuH7.5 cells. The format is cell-based. To be noted: human, non-infected, read-out: HCV CC50. As for the experimental part:
After 4 h of incubation at 37° C. in a humidified atmosphere with 5% CO2, the amount of formazan produced was quantified spectrophotometrically at 550/620 nm (C. Pannecouque et al, Nature protocol 2008; 3 (3): 427-434). […] These assays were done in duplicate.

Data set [14] is described as follows: Cytotoxicity in Huh7 cells, nuclei counts. To be noted: human.
Data set [15] concerns HCV Jc1 (genotype 2a virus). The data set can be described thus: HCV infectious cell culture system, NS5A immunostaining. To be noted: Hepatitis C virus, Huh7.5, read-out: HCV EC50.
Data set [16] concerns the target T1, DDX3 Helicase. To be noted: for IC50: read-out: ID50 (μM) against DDX3 Helicase, n.a. = compound not active.
Where [17] appears, read: experimental aqueous solubility, read-out: LogS (converted).
Setting [18] is: room temperature, 24-36 h, read-out: Aq. Solub.
The mark [19] stands for this setting: DENV CC50, Huh7 cells, DENV experiment.
The mark [20] stands for this setting: WNV CC50, Huh7 cells, WNV experiment.

As for `CCCCn1nnc(-c2ccc(NC(=O)Nc3ccccc3C(F)(F)F)cc2)n1` [Compound 51, 1-(4-(2-butyl-2H-tetrazol-5-yl)phenyl)-3-(2-(trifluoromethyl)phenyl)urea], the CC50 in data set [1] worked out at 6.7 µM. This molecule also registered an EC50 in [2] of 5.5 µM. Moreover, in data set [3], the “Normalized % infected cells” value turned out to be 60% and the “effect on EBOV replication, in words” value is “able to affect EBOV replication”. Besides, in [4], the IC50 came out at 800 nM. For the same molecule, in [5], the EC50 came to 0.6 µM.
With `CCCCn1nnc(-c2ccc(NC(=O)Nc3ccccc3C)cc2)n1` [Compound 49, 1-(4-(2-butyl-2H-tetrazol-5-yl)phenyl)-3-(o-tolyl)urea], the CC50 is 11.2 µM in data set [1] and > 50 µM in data set [10]. Besides, in data set [6], the CC50 at 24 h was > 1000 µM. Besides, the CC50 at 48 h in data set [6] is > 1000 µM. The CC50 at 72 h in [6] was > 1000 µM. Moreover, the EC50 in [2] came out at 5.2 µM; in data set [5], 7.16 µM; in [11] it was 9.5 µM; in data set [12], 7.1 µM. The Papp at 5 h, 0.5 mM in [7] was determined as 7.57 ×10⁻⁶ cm/s. In addition, in data set [7], the “PAMPA membrane retention (RM %)” value is 24.8%. Also, the solubility in data set [8] (setting [17]) is < 0.00316 µM; in data set [8] (setting [18]), < 0.001 µg/mL. The molecule further displayed an IC50 in [4] of 4900 nM. Also, the “Metabolic stability (Sability %)” value in data set [9] was determined as 95.6%.
Consider `Cc1ccccc1NC(=O)Nc1ccc(-n2cc(CCC(C)C)nn2)cc1` [Compound 20b, 1-(4-(4-isopentyl-1H-1,2,3-triazol-1-yl)phenyl)-3-o-tolylurea], for which the CC50 in data set [1] came out at 189 µM; in data set [13], 209 µM. Further, the Papp at 5 h, 0.5 mM in data set [7] came out at 1.93 ×10⁻⁶ cm/s. Also, the “PAMPA membrane retention (RM %)” value in data set [7] is given as 26.7%. Besides, the solubility was < 0.00251 µM in data set [8] (setting [17]) and < 0.001 µg/mL in [8] (setting [18]). This molecule also gave an IC50 in data set [4] of 500 nM. Further, the CC50 at 48 h in data set [14] (setting [19]) was determined as 40.4 µM; in [14] (setting [20]) it was 62.3 µM. Besides, the values for the EC50 in data set [15] and in data set [5] were 30 µM and 0.8 µM, respectively. Further, the “activity against HCV, in words” value in data set [5] is “best activity”.
Regarding `CCOCc1cn(-c2ccc(NC(=O)Nc3ccccc3C)cc2)nn1` [Compound 20e], the CC50 in [1] was 51.8 µM; in [10], > 50 µM. Also, the IC50 in [4] was determined as 940 nM. Further, the concentration giving a half-maximal response (EC50) in data set [5] came out at 8.55 µM; in [12] it was 25 µM.
As for `CC(C)CCc1cn(-c2ccc(NC(=O)Nc3cccc(F)c3)cc2)nn1` [Compound 55b, 1-(3-fluorophenyl)-3-(4-(4-isopentyl-1H-1,2,3-triazol-1-yl)phenyl)urea], the CC50 in [1] is 183 µM. The molecule further yielded an EC50 in data set [2] of 1.8 µM. In data set [16] (in words), the “DDX3 helicase activity compared with EI01D” value is “approximately ten-fold more active”. For the same molecule, the IC50 in data set [16] worked out at 0.2 µM. Besides, in [5], the “activity against HCV, in words” value is given as “best activity” and the EC50 came to 0.2 µM.
Turning to `CCOCc1cn(-c2ccc(NC(=O)Nc3cc(C(C)C)ccc3C)cc2)nn1` [Compound 55e, 1-(4-(4-(ethoxymethyl)-1H-1,2,3-triazol-1-yl)phenyl)-3-(5-isopropyl-2-methylphenyl) urea], the values for the CC50 in data set [1] and in data set [10] were 245 µM and > 50 µM, respectively. Besides, the IC50 in data set [4] worked out at 900 nM. The half-maximal effective concentration (EC50) was found to be 1 µM in data set [5] and 3.3 µM in data set [12].
On to `CCCCc1cn(-c2ccc(NC(=O)Nc3ccccc3C(F)(F)F)cc2F)nn1` [Compound 81, 1-(4-(4-butyl-1H-1,2,3-triazol-1-yl)-3-fluorophenyl)-3-(2-(trifluoromethyl)phenyl)urea], for which, in data set [1], the CC50 was 74.2 µM. Moreover, in data set [7], the Papp at 5 h, 0.5 mM came to 7.22 ×10⁻⁶ cm/s. Further, the “PAMPA membrane retention (RM %)” value in data set [7] is on record as 30.4%. Moreover, the values for the solubility in [8] (setting [17]) and in data set [8] (setting [18]) were 0.398 µM and 80.1 µg/mL, respectively. In [4], this molecule gave an IC50 of 1000 nM. For the same molecule, the “Metabolic stability (Sability %)” value in [9] was found to be 94%. In addition, the EC50 in [5] is 1.99 µM.
Regarding `O=[N+]([O-])c1cccc(S(=O)(=O)Nc2ccccc2O)c1` [Compound 58a, N-(2-hydroxy)-3-nitro-phenylbenzenesulfonamide], the CC50 is 215 µM in [1] and > 50 µM in data set [10]. Also, the EC50 came to 20.2 µM in [2], 204 µM in data set [5] and 10 µM in data set [12]. The same molecule had an IC50 in data set [4] of 370 nM. The 50% cytotoxic concentration (CC50) at 48 h in data set [14] (setting [19]) stood at 99.4 µM; in [14] (setting [20]), 60.9 µM.
In the case of `CCOCc1cn(-c2cccc(S(=O)(=O)Nc3ccccc3C(F)(F)F)c2)nn1` [Compound 66d, 3-(4-(ethoxymethyl)-1H-1,2,3-triazol-1-yl)-N-(2-(trifluoromethyl)phenyl) benzenesulfonamide], in data set [1], the CC50 was 58.6 µM. Further, in data set [6], the CC50 at 24 h stood at 450 µM; the CC50 at 48 h came out at 357 µM; the midpoint of cytotoxicity, the CC50 at 72 h, lay at 703 µM. In data set [3], the “Normalized % infected cells” value was 80% and the “effect on EBOV replication, in words” value is on record as “able to affect EBOV replication”. The IC50 in data set [16] was found to be 0.4 µM. Also, the CC50 in [10] was > 50 µM. Further, in data set [5], the concentration giving a half-maximal response (EC50) was > 58.6 µM. Further, the EC50 in data set [11] turned out to be 26 µM. Moreover, the EC50 in data set [12] was found to be 6.1 µM.
In the case of `CC(C)CCc1cn(-c2ccc(NC(=O)Nc3cccc4cnccc34)cc2)nn1` [Compound 55f, 1-(4-(4-isopentyl-1H-1,2,3-triazol-1-yl)phenyl)-3-(isoquinolin-5-yl)urea], the CC50 was > 312 µM in data set [1] and > 50 µM in data set [10]. Also, the IC50 in data set [4] was 500 nM. For the same molecule, the EC50 in [5] is 0.9 µM; in [12], 32.8 µM.
